The source of these data is patent US7196110B2, “N-substituted tricyclic 3-aminopyrazoles as inhibitors for the treatment of cell proliferative disorders” (Janssen Phamaceutica N.V., priority 2002, dated 2007).

pIC50: −log10 of the molar value.

For this test, the target named is T1, PDGF-receptor beta enzyme comprising the tyrosine kinase domain (Homo sapiens, UniProt P09619).
T1 construct: from amino acid 545 to 1106 of GenBank Access NO: AAA36427
The experiment in a line: Inhibition of PDGF-receptor kinase activity (cell-free, PLC1 peptide, 33P Flashplate). In kind it is biochemical. The note with it: PDGF-R kinase activity; for inhibition at 10 µM: compound at 10 uM, read-out: Percent Inhibition @ 10 uM; for pIC50: read-out: IC50. The protocol: PDGF-R kinase activity was assayed by its ability to phosphorylate one of its target proteins, PLCγ, in a cell-free system, in particular, a PLC1 peptide comprising the tyrosine residue where the phosphorylation occurs was used for the assay.
10× Kinase Buffer (500 mM Tris-HCl pH=8, 100 mM MgCl2, 1 mM Na3VO4); 10 mM DTT (final concentration at 1 mM in assay); 10 mM ATP (final concentration at 5 μM in assay); ^33P-γ-ATP (Cat. No.: NEG/602H. 2000-3000 Ci/mmol) purchased from NEN; Purified, soluble, recombinant PDGF-receptor beta enzyme comprising the tyrosine kinase domain (from amino acid 545 to 1106 of GenBank Access NO: AAA36427 ) at 0.4 mg/mL; Enzyme Dilution Buffer (50 mM Tris-HCl pH=8.0, 0.1% BSA); Wash/Stop Buffer (PBS +100 mM EDTA); NEN Streptavidin Flashplates (Cat. No.: SMP-103) which binds to the biotinylated PLC1 peptide but not the PDGF-R enzyme; PLC1 peptide (Biotin-[…]-Amide) at 1 mM in 50 mM Tris-HCL with pH of 8.0.
Reagents were first mixed according the following regimen:
The above reaction mixture was dispensed into each well of a Flashplate at 70 μl/well. To test the effect of a compound on PDGF-R kinase activity, the test compound either in a fixed concentration or in serially diluted concentrations in 100% DMSO was added to appropriate wells at 1 μl/well.
Enzyme PDGF-R was diluted in Enzyme dilution buffer as following:
The kinase reaction was initiated by adding 30 μl of diluted PDGF-R enzyme solution to each well on the Flashplate containing hot ATP and PLC1, except wells of column 12 rows E through H, which were used to calculate the plate background. The Flashplate was swirled to mix and was incubated at 30° C. for 60 minutes. Then, the reaction mixture was discarded and the Flashplate was washed 3 times each with 200 μl Wash/Stop Buffer. Subsequently, each well on the Flashplate was filled with 200 μl of Wash/Stop buffer. The amount of ^33P retained in each well was measured using a Packard TopCount after the plate was sealed with a transparent plate sealer.
The percentage of inhibition of the test compound on PDGF-R kinase activity is defined as […].
In order to test the potency of inhibition of present compounds, an IC50 for an individual compound was measured using the above procedure. As used herein, the IC50 for PDGF-R kinase activity refers to the concentration of an inhibitor at which the activity of the PDGF-R kinase is reduced by one-half as compared with reactions containing no inhibitor.

T1 sequence (P09619 545-1106): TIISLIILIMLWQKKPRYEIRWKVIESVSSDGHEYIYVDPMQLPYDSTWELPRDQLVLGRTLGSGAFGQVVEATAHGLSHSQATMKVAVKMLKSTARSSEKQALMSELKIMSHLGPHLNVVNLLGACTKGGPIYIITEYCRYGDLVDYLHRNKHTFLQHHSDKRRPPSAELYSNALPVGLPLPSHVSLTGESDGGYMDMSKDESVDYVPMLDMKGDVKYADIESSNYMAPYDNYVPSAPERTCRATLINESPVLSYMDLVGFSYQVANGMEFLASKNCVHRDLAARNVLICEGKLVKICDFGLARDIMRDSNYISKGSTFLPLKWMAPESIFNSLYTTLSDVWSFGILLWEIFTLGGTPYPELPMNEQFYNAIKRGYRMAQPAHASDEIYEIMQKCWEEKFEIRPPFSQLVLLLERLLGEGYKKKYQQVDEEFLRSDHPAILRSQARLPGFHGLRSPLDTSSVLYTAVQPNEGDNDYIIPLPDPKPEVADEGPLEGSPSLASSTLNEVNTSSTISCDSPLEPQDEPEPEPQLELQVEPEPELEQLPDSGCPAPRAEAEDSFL

By inhibition is commonly meant the relative decrease from the control value, in per cent. The term pIC50 denotes the IC50 on a negative log10 scale, so that one unit is a factor of ten. `COc1cc2c(cc1OC)-c1n[nH]c(Nc3ccc4c(c3)OCO4)c1C2` [Compound 62, Benzo[1,3]dioxol-5-yl-(6,7-dimethoxy-2,4-dihydro-indeno[1,2-c]pyrazol-3-yl)-amine]: the inhibition at 10 µM was 85% and the pIC50 was 6.50.

As to `CN1CCN(c2ccc3c(c2)Cc2c-3n[nH]c2Nc2ccccc2)CC1` [Compound 64, [6-(4-Methyl-piperazin-1-yl)-2,4-dihydro-indeno[1,2-c]pyrazol-3-yl]-phenyl-amine], the inhibition at 10 µM amounted to 118% and the pIC50 is 6.35.

Take `c1ccc(Nc2[nH]nc3c2Cc2cc(N4CCCCC4)ccc2-3)cc1` [Compound 65, Phenyl-(6-piperidin-1-yl-2,4-dihydro-indeno[1,2-c]pyrazol-3-yl)-amine]: the inhibition at 10 µM is 76% and the pIC50 is 5.81.

Regarding `Nc1ccc2c(c1)Cc1c-2n[nH]c1Nc1ccccc1` [Compound 66, N3-Phenyl-2,4-dihydro-indeno[1,2-c]pyrazole-3,6-diamine], the inhibition at 10 µM amounted to 108% and the negative-log IC50 (pIC50) was 7.04.

As to `COc1cc2c(cc1OC)-c1n[nH]c(NC3CCCCC3)c1C2` [Compound 67, Cyclohexyl-(6,7-dimethoxy-2,4-dihydro-indeno[1,2-c]pyrazol-3-yl)-amine], the inhibition at 10 µM worked out at 77% and the negative logarithm of the IC50 (pIC50) is 6.21.

On to `COc1cc2c(cc1OC)-c1n[nH]c(NCCN3CCOCC3)c1C2` [Compound 69, (6,7-Dimethoxy-2,4-dihydro-indeno[1,2-c]pyrazol-3-yl)-(2-morpholin-4-yl-ethyl)-amine], for which the inhibition at 10 µM is 18%.

As for `COc1cc2c(cc1OC)-c1n[nH]c(Nc3cc(C(F)(F)F)cc(C(F)(F)F)c3)c1C2` [Compound 70, (3,5-Bis-trifluoromethyl-phenyl)-(6,7-dimethoxy-2,4-dihydro-indeno[1,2-c]pyrazol-3-yl)-amine], the inhibition at 10 µM turned out to be 41.5% and the pIC50 was 4.77.

In the case of `CN(C)CCCOc1cccc2c1Cc1c-2n[nH]c1Nc1ccccc1` [Compound 71, [5-(3-Dimethylamino-propoxy)-2,4-dihydro-indeno[1,2-c]pyrazol-3-yl]-phenyl-amine], the inhibition at 10 µM stood at 110% and the pIC50 was 6.73.

On to `CN(C)CCCOc1cccc2c1Cc1c-2n[nH]c1Nc1cccc(Cl)c1` [Compound 72, (3-Chloro-phenyl)-[5-(3-dimethylamino-propoxy)-2,4-dihydro-indeno[1,2-c]pyrazol-3-yl]-amine], for which the inhibition at 10 µM was determined as 96% and the pIC50 was 6.55.

Turning to `CN(C)CCCOc1cccc2c1Cc1c-2n[nH]c1Nc1ccc(F)cc1` [Compound 73, [5-(3-Dimethylamino-propoxy)-2,4-dihydro-indeno[1,2-c]pyrazol-3-yl]-(4-fluoro-phenyl)-amine], the inhibition at 10 µM was approximately 30% and the negative logarithm of the IC50 (pIC50) is less than 4.30.

For `COc1cccc(Nc2[nH]nc3c2Cc2c(OCCCN(C)C)cccc2-3)c1` [Compound 74, [5-(3-Dimethylamino-propoxy)-2,4-dihydro-indeno[1,2-c]pyrazol-3-yl]-(3-methoxy-phenyl)-amine], the inhibition at 10 µM is 102% and the pIC50 was 6.37.

Consider `CN(C)CCCOc1cccc2c1Cc1c-2n[nH]c1Nc1cccnc1` [Compound 75, [5-(3-Dimethylamino-propoxy)-2,4-dihydro-indeno[1,2-c]pyrazol-3-yl]-pyridin-3-yl-amine], for which the inhibition at 10 µM was determined as 115% and the pIC50 is 6.24.

As for `COc1cc2c(cc1OC)-c1n[nH]c(Nc3ccc(Br)cc3C(F)(F)F)c1C2` [Compound 76, (4-Bromo-2-trifluoromethyl-phenyl)-(6,7-dimethoxy-2,4-dihydro-indeno[1,2-c]pyrazol-3-yl)-amine], the inhibition at 10 µM came to 16% and the pIC50 is less than 4.30.

Regarding `COC(=O)c1cccc(Nc2[nH]nc3c2Cc2c(OCCCN(C)C)cccc2-3)c1` [Compound 77, 3-[5-(3-Dimethylamino-propoxy)-2,4-dihydro-indeno[1,2-c]pyrazol-3-ylamino]-benzoic acid methyl ester], the inhibition at 10 µM worked out at 108% and the negative logarithm of the IC50 (pIC50) was 6.66.

Take `COc1cc2c(cc1OC)-c1n[nH]c(Nc3ccco3)c1C2` [Compound 78, (6,7-Dimethoxy-2,4-dihydro-indeno[1,2-c]pyrazol-3-yl)-furan-2-yl-amine]: the inhibition at 10 µM turned out to be 85% and the pIC50 is 5.89.

Turning to `COc1cc2c(cc1OC)-c1n[nH]c(Nc3ccc4c(c3)CCC4)c1C2` [Compound 79, (6,7-Dimethoxy-2,4-dihydro-indeno[1,2-c]pyrazol-3-yl)-indan-5-yl-amine], the inhibition at 10 µM was 56% and the negative logarithm of the IC50 (pIC50) is 5.43.

As to `COc1cc2c(cc1OC)-c1n[nH]c(NCCN3CCCCC3)c1C2` [Compound 81, (6,7-Dimethoxy-2,4-dihydro-indeno[1,2-c]pyrazol-3-yl)-(2-piperidin-1-yl-ethyl)-amine], the inhibition at 10 µM stood at 29% and the pIC50 is 4.07.

With `COc1ccc2c(c1)Cc1c-2n[nH]c1Nc1ccc(F)cc1` [Compound 82, (4-Fluoro-phenyl)-(6-methoxy-2,4-dihydro-indeno[1,2-c]pyrazol-3-yl)-amine], the inhibition at 10 µM is 79% and the pIC50 is 6.56.

Take `COc1ccc2c(c1)Cc1c-2n[nH]c1Nc1cccc(Br)c1` [Compound 83, (3-Bromo-phenyl)-(6-methoxy-2,4-dihydro-indeno[1,2-c]pyrazol-3-yl)-amine]: the inhibition at 10 µM came to 93% and the negative logarithm of the IC50 (pIC50) is 7.14.

As to `COc1ccc2c(c1)Cc1c-2n[nH]c1Nc1cccnc1` [Compound 84, (6-Methoxy-2,4-dihydro-indeno[1,2-c]pyrazol-3-yl)-pyridin-3-yl-amine], the inhibition at 10 µM was found to be 86% and the negative logarithm of the IC50 (pIC50) was 6.15.

With `COc1ccc2c(c1)Cc1c-2n[nH]c1Nc1cc(OC)ccc1OC` [Compound 85, (2,5-Dimethoxy-phenyl)-(6-methoxy-2,4-dihydro-indeno[1,2-c]pyrazol-3-yl)-amine], the inhibition at 10 µM was found to be 61% and the pIC50 was 5.23.

As to `COc1ccc2c(c1)Cc1c-2n[nH]c1Nc1ccc(OC)c(OC)c1` [Compound 86, (3,4-Dimethoxy-phenyl)-(6-methoxy-2,4-dihydro-indeno[1,2-c]pyrazol-3-yl)-amine], the inhibition at 10 µM amounted to 57% and the pIC50 was 5.60.

Regarding `COc1ccc2c(c1)Cc1c-2n[nH]c1Nc1cc(F)ccc1F` [Compound 87, (2,5-Difluoro-phenyl)-(6-methoxy-2,4-dihydro-indeno[1,2-c]pyrazol-3-yl)-amine], the inhibition at 10 µM worked out at 91% and the negative logarithm of the IC50 (pIC50) was 7.16.

Consider `COc1ccc2c(c1)Cc1c-2n[nH]c1Nc1ccc(OC(F)(F)F)cc1` [Compound 88, (6-Methoxy-2,4-dihydro-indeno[1,2-c]pyrazol-3-yl)-(4-trifluoromethoxy-phenyl)-amine], for which the inhibition at 10 µM amounted to 42% and the pIC50 is 4.68.

For the molecule `COc1ccc2c(c1)Cc1c-2n[nH]c1Nc1ccc(C(F)(F)F)cc1` [Compound 89, (6-Methoxy-2,4-dihydro-indeno[1,2-c]pyrazol-3-yl)-(4-trifluoromethyl-phenyl)-amine], the inhibition at 10 µM was found to be 88% and the negative logarithm of the IC50 (pIC50) is 6.05.

With `CN(C)c1ccc2c(c1)Cc1c-2n[nH]c1Nc1ccccc1` [Compound 92, N6,N6-Dimethyl-N3-phenyl-2,4-dihydro-indeno[1,2-c]pyrazole-3,6-diamine], the inhibition at 10 µM worked out at 75% and the pIC50 is 6.42.

Regarding `c1ccc(Nc2[nH]nc3c2CCc2ccccc2-3)cc1` [Compound 93, (4,5-Dihydro-2H-benzo[g]indazol-3-yl)-phenyl-amine], the inhibition at 10 µM turned out to be 88% and the pIC50 is 5.99.

For the molecule `c1ccc(Nc2[nH]nc3c2Cc2sccc2-3)cc1` [Compound 94, (5,7-Dihydro-1-thia-4,5-diaza-cyclopenta[a]pentalen-6-yl)-phenyl-amine], the inhibition at 10 µM was 95% and the pIC50 is 6.38.

For `Brc1cccc(Nc2[nH]nc3c2Cc2cc4c(cc2-3)OCO4)c1` [Compound 95, (3-Bromo-phenyl)-(2,9-dihydro-5,7-dioxa-2,3-diaza-cyclopenta[a]-s-indacen-1-yl)-amine], the inhibition at 10 µM came out at 91% and the pIC50 is 7.20.
